Assay results: patent publication US20260176320A1, “MODULATORS OF G-PROTEIN COUPLED RECEPTORS” (priority 2018, published 2026)
pEC50: −log10 of the molar value. Read-outs that look alike come from different tables or passages of the source. Square brackets hold non-standard residues; d marks the D form. Peptide text beside a SMILES is read from it. * marks the point of attachment. X1 = O=C(CSCC(=O)*)NCCN1C(=O)c2ccccc2C1=O; Aib = CC(C)(N)C(=O)O

Experiments:
Assay type in all cases: cell-based
[1] = biological target: T1, GLP-1R (Homo sapiens, UniProt P43220); assay: HitHunter cAMP assay (GLP-1R); details: cAMP; for Emax: read-out: (Emax) GLP-1R
T1 sequence (P43220 24-463): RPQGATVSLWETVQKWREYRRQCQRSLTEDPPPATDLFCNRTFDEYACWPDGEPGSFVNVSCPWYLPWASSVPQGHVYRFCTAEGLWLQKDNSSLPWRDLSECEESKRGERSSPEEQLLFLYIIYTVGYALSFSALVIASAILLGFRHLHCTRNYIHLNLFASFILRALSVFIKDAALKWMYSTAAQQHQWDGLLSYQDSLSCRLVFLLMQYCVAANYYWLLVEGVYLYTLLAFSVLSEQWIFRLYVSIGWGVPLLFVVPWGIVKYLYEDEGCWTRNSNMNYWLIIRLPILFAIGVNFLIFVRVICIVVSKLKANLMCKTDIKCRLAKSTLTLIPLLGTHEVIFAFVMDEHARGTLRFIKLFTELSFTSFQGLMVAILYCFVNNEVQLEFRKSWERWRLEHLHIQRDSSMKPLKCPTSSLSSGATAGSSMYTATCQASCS
Procedure, shortened: (§1)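 Suspension cells (10,000/well) in HBSS with 10 mM HEPES, 625 μM IBMX, 0.2% BSA exposed to 22-point 2-fold agonist series in duplicate for 30 min at room temperature. cAMP measured by antibody immunocompetition with overnight development, luminescence read-out.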

[2] = biological target: T2, GIP-R (Homo sapiens, UniProt P48546); assay: HitHunter cAMP assay (GIP-R); details: cAMP; for Emax: read-out: (Emax) GIP-R
T2 sequence (P48546 22-466): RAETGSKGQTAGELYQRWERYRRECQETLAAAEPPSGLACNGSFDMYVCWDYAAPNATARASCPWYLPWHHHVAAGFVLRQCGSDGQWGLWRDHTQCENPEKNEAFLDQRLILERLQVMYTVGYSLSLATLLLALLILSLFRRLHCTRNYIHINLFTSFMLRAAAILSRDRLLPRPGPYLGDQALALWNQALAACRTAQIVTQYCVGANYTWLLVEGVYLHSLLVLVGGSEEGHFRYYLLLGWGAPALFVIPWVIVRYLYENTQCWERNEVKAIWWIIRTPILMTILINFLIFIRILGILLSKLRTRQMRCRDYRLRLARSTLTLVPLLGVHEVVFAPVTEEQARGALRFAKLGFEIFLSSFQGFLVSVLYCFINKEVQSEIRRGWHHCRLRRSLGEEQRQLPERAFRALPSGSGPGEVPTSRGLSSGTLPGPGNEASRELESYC
Procedure, shortened: as §1

[3] = biological target: T1, GLP-1R; assay: PathHunter β-arrestin assay
Procedure, shortened: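 Cells (5,000/well) plated overnight, then exposed to a 22-point 2-fold agonist dilution series in medium with 0.2% BSA for 90 min at 37 °C, 5% CO2. PathHunter detection reagent added; after 3 h at room temperature in the dark, luminescence read.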

[4] = Table 3, read-out: EC50 GLP-1R/nM
[5] = Table 3A, read-out: EC50 GLP-1R/nM
[6] = Table 3, read-out: EC50 GIP-R/nM
[7] = Table 3A, read-out: EC50 GIP-R/nM
[8] = PathHunter β-arrestin assay, read-out: β-arrestin activity EC50
[9] = read-out: EC50 GIP-R/nM, Table 3
[10] = read-out: EC50 GIP-R/nM, Table 3A

SMILES | Emax ([1]; Table 3) [%] | EC50 [1, 4] [nM] | Emax ([1]; Table 3A) [%] | EC50 [1, 5] [nM] | Emax ([2]; Table 3) [%] | EC50 [2, 6] [nM] | Emax ([2]; Table 3A) [%] | EC50 [2, 7] [nM] | pEC50 [3, 8] | EC50 ([1]; EC50 GLP-1R/nM, Table 3) [nM] | EC50 ([1]; EC50 GLP-1R/nM, Table 3A) [nM] | EC50 [2, 9] [nM] | EC50 [2, 10] [nM] | pEC50 [3] | EC50 ([2]; EC50 GIP-R/nM, Table 3) [nM] | EC50 ([2]; EC50 GIP-R/nM, Table 3A) [nM]
CC[C@H](C)[C@H](NC(=O)[C@H](CO)NC(=O)[C@H](Cc1ccc(O)cc1)NC(=O)[C@H](CC(=O)O)NC(=O)[C@H](CO)NC(=O)[C@@H](NC(=O)[C@H](Cc1ccccc1)NC(=O)[C@@H](NC(=O)CNC(=O)[C@H](CCC(=O)O)NC(=O)CSCC(=O)NCCN1C(=O)CSC1=O)[C@@H](C)O)[C@@H](C)O)C(=O)N[C@@H](Cc1ccc(O)cc1)C(=O)N[C@@H](CC(C)C)C(=O)N[C@@H](CC(=O)O)C(=O)N[C@@H](CCCCN)C(=O)N[C@@H](CCC(N)=O)C(=O)N[C@@H](C)C(=O)N[C@@H](C)C(=O)NC(C)(C)C(=O)N[C@@H](CCC(=O)O)C(=O)N[C@@H](Cc1ccccc1)C(=O)N[C@H](C(=O)N[C@@H](CC(N)=O)C(=O)N[C@@H](Cc1c[nH]c2ccccc12)C(=O)N[C@@H](CC(C)C)C(=O)N[C@@H](CC(C)C)C(=O)N[C@@H](C)C(=O)NCC(=O)NCC(=O)N1CCC[C@H]1C(=O)N[C@@H](CO)C(=O)N[C@@H](CO)C(=O)NCC(=O)N[C@@H](C)C(=O)N1CCC[C@H]1C(=O)N1CCC[C@H]1C(=O)N1CCC[C@H]1C(=O)N[C@@H](CO)C(=O)N[C@@H](CCCCN)C(N)=O)C(C)C [Compound 196] | 93 to 104 | 0.1 to 10 | 93 to 104 | 0.1 to 10 | 41 to 86 | 1 to 100 | 41 to 86 | 1 to 100 | < 6.00 |  |  |  |  |  |  | 
CC[C@H](C)[C@H](NC(=O)[C@H](CO)NC(=O)[C@H](Cc1ccc(O)cc1)NC(=O)[C@H](CC(=O)O)NC(=O)[C@H](CO)NC(=O)[C@@H](NC(=O)[C@H](Cc1ccccc1)NC(=O)[C@@H](NC(=O)CNC(=O)[C@H](CCC(=O)O)NC(=O)CC(=O)NCCCN1C(=O)c2ccc(C)cc2C1=O)[C@@H](C)O)[C@@H](C)O)C(=O)N[C@@H](Cc1ccc(O)cc1)C(=O)N[C@@H](CC(C)C)C(=O)N[C@@H](CC(=O)O)C(=O)N[C@@H](CCCCN)C(=O)N[C@@H](CCC(N)=O)C(=O)N[C@@H](C)C(=O)N[C@@H](C)C(=O)NC(C)(C)C(=O)N[C@@H](CCC(=O)O)C(=O)N[C@@H](Cc1ccccc1)C(=O)N[C@H](C(=O)N[C@@H](CC(N)=O)C(=O)N[C@@H](Cc1c[nH]c2ccccc12)C(=O)N[C@@H](CC(C)C)C(=O)N[C@@H](CC(C)C)C(=O)N[C@@H](C)C(=O)NCC(=O)NCC(=O)N1CCC[C@H]1C(=O)N[C@@H](CO)C(=O)N[C@@H](CO)C(=O)NCC(=O)N[C@@H](C)C(=O)N1CCC[C@H]1C(=O)N1CCC[C@H]1C(=O)N1CCC[C@H]1C(=O)N[C@@H](CO)C(=O)N[C@@H](CCCCN)C(N)=O)C(C)C [Compound 128] | 99 |  | 99 |  | 68 |  | 68 |  |  | 1 to 10 | 1 to 10 | 1 to 100 | 1 to 100 | < 6.00 |  | 
CCCCCCCCCCCCCCCC(=O)N[C@@H](CCC(=O)NCCCC[C@H](NC(=O)[C@H](CO)NC(=O)[C@@H]1CCCN1C(=O)[C@@H]1CCCN1C(=O)[C@@H]1CCCN1C(=O)[C@H](C)NC(=O)CNC(=O)[C@H](CO)NC(=O)[C@H](CO)NC(=O)[C@@H]1CCCN1C(=O)CNC(=O)CNC(=O)[C@H](C)NC(=O)[C@H](CC(C)C)NC(=O)[C@H](CC(C)C)NC(=O)[C@H](Cc1c[nH]c2ccccc12)NC(=O)[C@H](CC(N)=O)NC(=O)[C@@H](NC(=O)[C@H](Cc1ccccc1)NC(=O)[C@H](CCC(=O)O)NC(=O)C(C)(C)NC(=O)[C@H](C)NC(=O)[C@H](C)NC(=O)[C@H](CCC(N)=O)NC(=O)[C@H](CCCCN)NC(=O)[C@H](CC(=O)O)NC(=O)[C@H](CC(C)C)NC(=O)[C@H](Cc1ccc(O)cc1)NC(=O)[C@@H](NC(=O)[C@H](CO)NC(=O)[C@H](Cc1ccc(O)cc1)NC(=O)[C@H](CC(=O)O)NC(=O)[C@H](CO)NC(=O)[C@@H](NC(=O)[C@H](Cc1ccccc1)NC(=O)[C@@H](NC(=O)CNC(=O)[C@H](CCC(=O)O)NC(=O)CCCC(=O)NCCN1CCOCC1=O)[C@@H](C)O)[C@@H](C)O)[C@@H](C)CC)C(C)C)C(N)=O)C(=O)O [Compound 243] |  |  | 103 | < 0.1 |  |  | 20 | 10 to 100 | < 6.00 |  |  |  |  |  |  | 
CC[C@H](C)[C@H](NC(=O)[C@H](CO)NC(=O)[C@H](Cc1ccc(O)cc1)NC(=O)[C@H](CC(=O)O)NC(=O)[C@H](CO)NC(=O)[C@@H](NC(=O)[C@H](Cc1ccccc1)NC(=O)[C@@H](NC(=O)CNC(=O)[C@H](CCC(=O)O)NC(=O)C(C)(C)C(=O)NCCN1C(=O)c2ccccc2C1=O)[C@@H](C)O)[C@@H](C)O)C(=O)N[C@@H](Cc1ccc(O)cc1)C(=O)N[C@@H](CC(C)C)C(=O)N[C@@H](CC(=O)O)C(=O)N[C@@H](CCCCN)C(=O)N[C@@H](CCC(N)=O)C(=O)N[C@@H](C)C(=O)N[C@@H](C)C(=O)NC(C)(C)C(=O)N[C@@H](CCC(=O)O)C(=O)N[C@@H](Cc1ccccc1)C(=O)N[C@H](C(=O)N[C@@H](CC(N)=O)C(=O)N[C@@H](Cc1c[nH]c2ccccc12)C(=O)N[C@@H](CC(C)C)C(=O)N[C@@H](CC(C)C)C(=O)N[C@@H](C)C(=O)NCC(=O)NCC(=O)N1CCC[C@H]1C(=O)N[C@@H](CO)C(=O)N[C@@H](CO)C(=O)NCC(=O)N[C@@H](C)C(=O)N1CCC[C@H]1C(=O)N1CCC[C@H]1C(=O)N1CCC[C@H]1C(=O)N[C@@H](CO)C(=O)N[C@@H](CCCCN)C(N)=O)C(C)C [Compound 140] | 107 |  | 107 |  | 63 |  | 63 |  |  | < 0.1 | < 0.1 |  |  | < 6.00 | 1 to 10 | 1 to 10
CC[C@H](C)[C@H](NC(=O)[C@H](CO)NC(=O)[C@H](Cc1ccc(O)cc1)NC(=O)[C@H](CC(=O)O)NC(=O)[C@H](CO)NC(=O)[C@@H](NC(=O)[C@H](Cc1ccccc1)NC(=O)[C@@H](NC(=O)CNC(=O)[C@H](CCC(=O)O)NC(=O)CSCC(=O)NCCN1C(=O)c2ccccc2C1=O)[C@@H](C)O)[C@@H](C)O)C(=O)N[C@@H](Cc1ccc(O)cc1)C(=O)N[C@@H](CC(C)C)C(=O)N[C@@H](CC(=O)O)C(=O)N[C@@H](CCCCN)C(=O)N[C@@H](CCC(N)=O)C(=O)N[C@@H](C)C(=O)N[C@@H](C)C(=O)NC(C)(C)C(=O)N[C@@H](CC(C)C)C(=O)N[C@@H](Cc1ccccc1)C(=O)N[C@H](C(=O)N[C@@H](CC(N)=O)C(=O)N[C@@H](Cc1c[nH]c2ccccc12)C(=O)N[C@@H](CC(C)C)C(=O)N[C@@H](CC(C)C)C(=O)N[C@@H](C)C(=O)NCC(=O)NCC(=O)N1CCC[C@H]1C(=O)N[C@@H](CO)C(=O)N[C@@H](CO)C(=O)NCC(=O)N[C@@H](C)C(=O)N1CCC[C@H]1C(=O)N1CCC[C@H]1C(=O)N1CCC[C@H]1C(=O)N[C@@H](CO)C(=O)N[C@@H](CCCCN)C(N)=O)C(C)C [Compound 145] (X1-EGTFTSDYSIYLDKQAA[Aib]LFVNWLLAGGPSSGAPPPSK-NH2) | 100 to 104 |  | 100 to 104 |  | 125 |  | 125 |  |  | 1 to 10 | 1 to 10 | < 1 | < 1 | < 6.00 |  | 
CCCCCCCCCCCCCCCC(=O)N[C@@H](CCC(=O)NCCCC[C@H](NC(=O)[C@H](CO)NC(=O)[C@@H]1CCCN1C(=O)[C@@H]1CCCN1C(=O)[C@@H]1CCCN1C(=O)[C@H](C)NC(=O)CNC(=O)[C@H](CO)NC(=O)[C@H](CO)NC(=O)[C@@H]1CCCN1C(=O)CNC(=O)CNC(=O)[C@H](C)NC(=O)[C@H](CC(C)C)NC(=O)[C@H](CC(C)C)NC(=O)[C@H](Cc1c[nH]c2ccccc12)NC(=O)[C@H](CC(N)=O)NC(=O)[C@@H](NC(=O)[C@H](Cc1ccccc1)NC(=O)[C@H](CCC(=O)O)NC(=O)C(C)(C)NC(=O)[C@H](C)NC(=O)[C@H](C)NC(=O)[C@H](CCC(N)=O)NC(=O)[C@H](CCCCN)NC(=O)[C@H](CC(=O)O)NC(=O)[C@H](CC(C)C)NC(=O)[C@H](Cc1ccc(O)cc1)NC(=O)[C@@H](NC(=O)[C@H](CO)NC(=O)[C@H](Cc1ccc(O)cc1)NC(=O)[C@H](CC(=O)O)NC(=O)[C@H](CO)NC(=O)[C@@H](NC(=O)[C@H](Cc1ccccc1)NC(=O)[C@@H](NC(=O)CNC(=O)[C@H](CCC(=O)O)NC(=O)CSCC(=O)NCCN1CCSC1=O)[C@@H](C)O)[C@@H](C)O)[C@@H](C)CC)C(C)C)C(N)=O)C(=O)O [Compound 86] | 110 | 0.1 to 1 | 110 | 0.1 to 1 | 61 | 1 to 10 | 61 | 1 to 10 | < 6.00 |  |  |  |  |  |  | 
